Assays:
Sprague-Dawley rats = test: Open field locomotor activity; type: in vivo
Experimental: For contextual fear conditioning, open field, fear potentiated startle and elevate plus maze, experimentally naive adult male Sprague-Dawley rats (250-300 g; Janvier, France) were housed in groups of four per cage. Colony room temperature and humidity were maintained respectively at 20±1° C. and 60±3%. Food and water were available ad libitum and the animals were kept under an alternating 12 h/12 h day-night cycle (lights on at 07.00) for at least 6 days before the experiments were started. All experiments were conducted during the light period of the day-night cycle. For the Vogel test, male experimentally naive Wistar rats (180-220 g, State Breeding Farm “Rappolovo”, St. Petersburg, Russia; N=109) were used. Each animal was used only once.
Eltoprazine hydrochloride was dissolved in sterile water. […]
Locomotor activity was measured in four perspex boxes (ENV-515-16, 43.2 cm×43.2 cm×30 cm) placed in a noise-proof chamber equipped with ventilator and a source of white light (5.6 W) placed 55 cm above floor. […] 4 arrays of 16 infrared photo beams placed 3 cm above the floor measured horizontal activity. […] The output from the counters was integrated and analysed on-line by an PC computer. […]
Total distance travelled during the 60 min was taken for statistical analysis. Data are analysed by one-way ANOVA followed by Dunnett's test.

5-HT1a receptor = settings: Schipper et al. 1990; cited from earlier work

For `c1cc2c(c(N3CCNCC3)c1)OCCO2` [eltoprazine, 1-(2,3-dihydro-1,4-benzodioxin-5-yl)piperazine], the “total distance travelled in the open field” value (Sprague-Dawley rats; 1.25 mg/kg s.c.) is listed as “significantly increased”, the “locomotor activity in the open field at anxiolytic doses” value (Sprague-Dawley rats; acute s.c., 60 min before the test, FIG. 5) is listed as “not related to non-specific increase in locomotor activation” and the “effect on 5-HT1a receptor” value (5-HT1a receptor) is listed as “agonistic effect”.

Source: US20120136005A1, “E[…] THE TREATMENT OF ANXIETY” (MERZ PHARMA GmbH & CO. KGaA, priority 2009, published 2012)
